Measured values reported in PMC7277793 (Biomolecules, 2020).
Structures can show the parent of a compound that is named as a salt.

Key:
MARK4 [1] = target: T1, MARK4 (Homo sapiens, UniProt Q96L34); test: Fluorescence quenching binding study of MARK4 with DP and RT; settings: for Kq (quenching rate constant): Kq=Ksv/τ0, τ0 2.7 × 10^−9 s; for Ksv (Stern−Volmer constant): MARK4 4 μM; for n (number of the binding site) / Kd: modified Stern−Volmer plot; for ΔG (change in Gibbs free energy): van't Hoff equation; for Kd: K (binding constant); for mode of fluorescence quenching of the MARK4 complex: from temperature dependency of Ksv and from Kq; for ΔH (change in enthalpy) / ΔS (change in entropy): van't Hoff plot over 293, 296, 298 K, same value printed in each temperature row
T1 construct: made in house
T1 sequence (Q96L34 1-752): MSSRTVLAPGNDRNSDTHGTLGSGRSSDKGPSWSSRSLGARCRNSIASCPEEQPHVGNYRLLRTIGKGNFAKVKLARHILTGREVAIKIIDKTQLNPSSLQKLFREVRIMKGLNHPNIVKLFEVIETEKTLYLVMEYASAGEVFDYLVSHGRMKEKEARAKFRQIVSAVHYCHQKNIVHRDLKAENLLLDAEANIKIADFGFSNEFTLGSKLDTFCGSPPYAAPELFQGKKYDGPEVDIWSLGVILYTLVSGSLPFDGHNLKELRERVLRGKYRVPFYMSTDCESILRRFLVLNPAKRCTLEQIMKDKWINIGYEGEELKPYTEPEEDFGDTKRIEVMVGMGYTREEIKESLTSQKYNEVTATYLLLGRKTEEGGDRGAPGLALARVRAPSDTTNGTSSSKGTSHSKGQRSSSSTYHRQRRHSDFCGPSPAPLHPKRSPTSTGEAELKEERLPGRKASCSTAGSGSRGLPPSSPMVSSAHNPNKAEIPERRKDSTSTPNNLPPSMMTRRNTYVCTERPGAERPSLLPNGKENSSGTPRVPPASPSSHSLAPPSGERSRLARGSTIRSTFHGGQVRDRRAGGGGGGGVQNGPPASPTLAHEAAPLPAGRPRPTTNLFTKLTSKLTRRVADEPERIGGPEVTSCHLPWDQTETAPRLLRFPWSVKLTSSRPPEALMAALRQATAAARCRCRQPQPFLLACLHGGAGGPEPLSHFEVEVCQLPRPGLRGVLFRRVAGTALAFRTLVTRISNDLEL
From the text: The observed fluorescence intensities were corrected for the inner filter effect. Obtained data were fitted into the Stern−Volmer and modified Stern−Volmer equations to estimate Stern-Volmer constant (Ksv), binding constant (Ka), and the number of binding sites (n).
Equation (1) (van’t Hoff equation) was used to find the thermodynamic parameters such as changes in enthalpy, entropy, and Gibbs free energy associated with the reaction. (1) ΔG=−RTLnK=ΔH−TΔS
K is the obtained binding constant, ΔH is the associated enthalpy change and ΔG is the associated free Gibbs energy change. ΔS denotes the associated entropy change with reaction, and R is the universal gas constant.
The slope of the van’t Hoff plot (LnK on Y-axis against 1/T on the X-axis) gives the value of −ΔH/R, and the intercept giving the value of ΔS/R.
The intrinsic fluorescence of protein due to tryptophan is often used to get an insight into the ligand binding to the protein because binding often leads to changes in the surrounding environment around tryptophan residues which corresponds to observed changes in fluorescence. The recombinant MARK4 was expressed and purified to carry out all binding studies.
Ksv was obtained from the slope of this plot at a fixed intercept after linear regression using the Stern−Volmer equation (Equation (2)). (2) F0/F=1+Ksv[C]
The SV plot of combined quenching (both static and dynamic) is characteristically an upward curvature while the linear Stern−Volmer plot depicts that only one mode of quenching was operative. […] The linear plot and upward curvature are not enough to define the quenching type. […] Equation (3) uses Ksv and τo (average integral fluorescence lifetime of tryptophan) (2.7 × 10^−9 s) to find biomolecular quenching rate constant (Kq) (3) Kq=Ksv/τ0
To get insights into other binding parameters, Equation (4) was used. This equation gives binding constant (K) and the number of binding sites (n). (4) logF0−F/F=logK+nlog[C]

MARK4 [2] = target: T1, MARK4; test: ATPase inhibition assay (malachite green, BIOMOL reagent); assay type: biochemical; settings: MARK4 4 μM, ligand 0–20 μM, pre-incubated 60 min, 200 μM ATP, 25 °C; AAT Bioquest calculator
Protocol: The activity of MARK4 was measured using standard malachite green (BIOMOL® reagent, Enzo Life Sciences) microtitre-plate assay using previously-published protocols [17, 40].
Initially, MARK4 (4 μM) was pre-incubated with increasing concentrations of ligands at room temperature for 60 min in a 96-well plate. Subsequently, 200 μM of freshly-prepared ATP was mixed to the reaction mixture and incubated for 15–20 min at 25 °C. At the end of this time, BIOMOL® reagent was added and kept for 15–20 min. The intensity of color was spectrophotometrically measured at 620 nm.

MARK4 [3] = target: T1, MARK4; test: Isothermal titration calorimetry; assay type: binding; settings: ITC, 25 °C, 20 µM MARK4; for Kd: 100 µM DP or 200 µM RT in syringe
Protocol: Isothermal titration calorimetry (ITC) measurements were carried out on a VP-ITC microcalorimeter (MicroCal, Inc, GE, MicroCal, Northampton, MA, USA) at 25 °C. All the solutions were degassed in thermovac for 20 min to remove air bubbles. For sample preparation, recombinant MARK4 was extensively dialyzed in 20 mM Tris buffer, pH 8.5. […] We used standard protocol to run the ITC in which the first injection was a false injection of 2 μL followed by injections of 10 μL of the ligands at a span of 260 s intervals into the sample cell. The stirring rate was maintained at 320 rpm. The obtained titration data were analyzed by Origin 8.0 software to estimate thermodynamic parameters such as stoichiometry of binding (n), enthalpy change (ΔH), an association constant (Ka).

SMILES	TΔS (MARK4 [1]; 293 K) [kcal/mol]	Kq (quenching rate constant) (MARK4 [1]; 293 K)	n (number of the binding site) (MARK4 [1]; 293 K)	ΔG (change in Gibbs free energy) (MARK4 [1]; 293 K) [kcal/mol]	TΔS (MARK4 [1]; 296 K) [kcal/mol]	Kq (quenching rate constant) (MARK4 [1]; 296 K)	n (number of the binding site) (MARK4 [1]; 296 K)	ΔG (change in Gibbs free energy) (MARK4 [1]; 296 K) [kcal/mol]	TΔS (MARK4 [1]; 298 K) [kcal/mol]	Kq (quenching rate constant) (MARK4 [1]; 298 K)	n (number of the binding site) (MARK4 [1]; 298 K)	mode of fluorescence quenching of the MARK4 complex (MARK4 [1])	ΔH (change in enthalpy) (MARK4 [1]) [kcal/mol]	ΔS (change in entropy) (MARK4 [1]) [cal mol^−1K^−1]	∆S1 (MARK4 [3]) [cal/mol/deg]	∆S2 (MARK4 [3]) [cal/mol/deg]	further results
CCN(C)C(=O)Oc1cccc([C@H](C)N(C)C)c1 [RT, rivastigmine tartrate]	-133.48	1.25 10^13 M^−1 s^−1	1.66	-10.74	-135.76	1.44 10^13 M^−1 s^−1	1.311	-8.46	-138.04	2.14 10^13 M^−1 s^−1	0.94	combination of static and dynamic modes of quenching	-144.23	−455.78	31.1	-700	Ksv (Stern−Volmer constant) (MARK4 [1]; 293 K, RT 0−9 µM): 3.4 10^4 M^−1; Ksv (Stern−Volmer constant) (MARK4 [1]; 296 K, RT 0−9 µM): 3.9 10^4 M^−1; Ksv (Stern−Volmer constant) (MARK4 [1]; 298 K, RT 0−9 µM): 5.8 10^4 M^−1; ΔG (change in Gibbs free energy) (MARK4 [1]; 298 K): -6.18 kcal/mol; Kd (MARK4 [1]; 293 K): 0.00952 µM; Kd (MARK4 [1]; 296 K): 0.625 µM; Kd (MARK4 [1]; 298 K): 50 µM; IC50 (MARK4 [2]): 6.74 µM; Kd (MARK4 [3]; read-out: Ka1 (association constant) (converted)): 9.8 µM; Kd (MARK4 [3]; read-out: Ka2 (association constant) (converted)): 8.55 µM; Kd (MARK4 [3]; read-out: Ka3 (association constant) (converted)): 5 µM
COc1cc2c(cc1OC)C(=O)C(CC1CCN(Cc3ccccc3)CC1)C2 (stereo not drawn) [DP, Donepezil]	-126.79	6.85 10^14 M^−1 s^−1	1.66	-10.70	-128.09	5.81 10^14 M^−1 s^−1	1.311	-9.40	-128.95	5.03 10^14 M^−1 s^−1	0.1	static mode	-137.5	−432.749	51.2	-207	Ksv (Stern−Volmer constant) (MARK4 [1]; 293 K, DP 0−200 nM): 18.5 10^5 M^−1; Ksv (Stern−Volmer constant) (MARK4 [1]; 296 K, DP 0−200 nM): 15.7 10^5 M^−1; Ksv (Stern−Volmer constant) (MARK4 [1]; 298 K, DP 0−200 nM): 13.6 10^5 M^−1; ∆S3 (MARK4 [3]): 368 cal/mol/deg; ∆S4 (MARK4 [3]): -327 cal/mol/deg
